Assays:
[1] = The drug is tested on WLS-073 corresponding to human gut metagenome with ENA study accession number: PRJEB37062 and ENA sample accession number: ERS12561749 for biotransformation under anaerobic condition. The drug concentrations were measured over 9 timepoints collected between 0 and 24 hours of incubation by liquid-chromatography-coupled mass spectrometry (LC–MS); details: 2 µM
[2] = The drug is tested on Z-005 corresponding to metagenome with ENA study accession number: PRJEB37062 and ENA sample accession number: ERS12561805 for biotransformation under anaerobic condition. The drug concentrations were measured over 9 timepoints collected between 0 and 24 hours of incubation by liquid-chromatography-coupled mass spectrometry (LC–MS); details: 2 µM
[3] = The drug is tested on Z-013 corresponding to rabbit gut metagenome with ENA study accession number: PRJEB37062 and ENA sample accession number: ERS12561813 for biotransformation under anaerobic condition. The drug concentrations were measured over 9 timepoints collected between 0 and 24 hours of incubation by liquid-chromatography-coupled mass spectrometry (LC–MS); details: 2 µM
[4] = human gut metagenome, 24 h, 2 µM
[5] = human gut metagenome, 24 h, 2 µM; remark: listed apart in the source
[6] = human gut metagenome, 24 h, 2 µM; remark: listed apart in the source
[7] = human gut metagenome, 24 h, 2 µM; remark: listed apart in the source
[8] = The drug is tested on Z-006 corresponding to mouse gut metagenome with ENA study accession number: PRJEB37062 and ENA sample accession number: ERS12561806 for biotransformation under anaerobic condition. The drug concentrations were measured over 9 timepoints collected between 0 and 24 hours of incubation by liquid-chromatography-coupled mass spectrometry (LC–MS); details: 2 µM
[9] = human gut metagenome, 24 h, 2 µM; remark: listed apart in the source
[10] = human gut metagenome, 24 h, 2 µM; remark: listed apart in the source
[11] = human gut metagenome, 24 h, 2 µM; remark: listed apart in the source
[12] = The drug is tested on Z-010 corresponding to metagenome with ENA study accession number: PRJEB37062 and ENA sample accession number: ERS12561810 for biotransformation under anaerobic condition. The drug concentrations were measured over 9 timepoints collected between 0 and 24 hours of incubation by liquid-chromatography-coupled mass spectrometry (LC–MS); details: 2 µM
[13] = human gut metagenome, 24 h, 2 µM; remark: listed apart in the source
[14] = human gut metagenome, 24 h, 2 µM; remark: listed apart in the source
[15] = The drug is tested on Z-009 corresponding to pig gut metagenome with ENA study accession number: PRJEB37062 and ENA sample accession number: ERS12561809 for biotransformation under anaerobic condition. The drug concentrations were measured over 9 timepoints collected between 0 and 24 hours of incubation by liquid-chromatography-coupled mass spectrometry (LC–MS); details: 2 µM
[16] = The drug is tested on WLS-220 corresponding to human gut metagenome with ENA study accession number: PRJEB37062 and ENA sample accession number: ERS12561769 for biotransformation under anaerobic condition. The drug concentrations were measured over 9 timepoints collected between 0 and 24 hours of incubation by liquid-chromatography-coupled mass spectrometry (LC–MS); details: 2 µM
[17] = human gut metagenome, 24 h, 2 µM; remark: listed apart in the source
[18] = The drug is tested on WLS-370 corresponding to human gut metagenome with ENA study accession number: PRJEB37062 and ENA sample accession number: ERS12561793 for biotransformation under anaerobic condition. The drug concentrations were measured over 9 timepoints collected between 0 and 24 hours of incubation by liquid-chromatography-coupled mass spectrometry (LC–MS); details: 2 µM
[19] = The drug is tested on Z-011 corresponding to mouse gut metagenome with ENA study accession number: PRJEB37062 and ENA sample accession number: ERS12561811 for biotransformation under anaerobic condition. The drug concentrations were measured over 9 timepoints collected between 0 and 24 hours of incubation by liquid-chromatography-coupled mass spectrometry (LC–MS); details: 2 µM
[20] = The drug is tested on Z-027 corresponding to metagenome with ENA study accession number: PRJEB37062 and ENA sample accession number: ERS12561826 for biotransformation under anaerobic condition. The drug concentrations were measured over 9 timepoints collected between 0 and 24 hours of incubation by liquid-chromatography-coupled mass spectrometry (LC–MS); details: 2 µM
Also: call rule not given here.

Compound | Bacterial Biotransformation [1] | Bacterial Biotransformation [2] | Bacterial Biotransformation [3] | Bacterial Biotransformation [4] | Bacterial Biotransformation [5] | Bacterial Biotransformation [6] | Bacterial Biotransformation [7] | Bacterial Biotransformation [8] | Bacterial Biotransformation [9] | Bacterial Biotransformation [10] | Bacterial Biotransformation [11] | Bacterial Biotransformation [12] | Bacterial Biotransformation [13] | Bacterial Biotransformation [14] | Bacterial Biotransformation [15] | Bacterial Biotransformation [16] | Bacterial Biotransformation [17] | Bacterial Biotransformation [18] | Bacterial Biotransformation [19] | Bacterial Biotransformation [20]
CCC1(c2ccc(N)cc2)CCC(=O)NC1=O (stereo not drawn) [AMINOGLUTETHIMIDE] | Compound NOT metabolized | Compound NOT metabolized | Compound NOT metabolized | Compound NOT metabolized | Compound NOT metabolized | Compound NOT metabolized | Compound NOT metabolized | Compound NOT metabolized | Compound NOT metabolized | Compound NOT metabolized | Compound NOT metabolized | Compound NOT metabolized | Compound NOT metabolized | Compound NOT metabolized | Compound metabolized | Compound NOT metabolized | Compound NOT metabolized | Compound NOT metabolized | – | –
CC(=O)O[C@]1(C(C)=O)CC[C@H]2[C@@H]3C=C(Cl)C4=CC(=O)[C@@H]5C[C@@H]5[C@]4(C)[C@H]3CC[C@@]21C [CYPROTERONE ACETATE] | Compound metabolized | Compound metabolized | – | Compound metabolized | Compound metabolized | Compound metabolized | Compound metabolized | – | Compound metabolized | Compound metabolized | Compound metabolized | Compound metabolized | Compound metabolized | Compound metabolized | Compound metabolized | Compound metabolized | Compound metabolized | Compound metabolized | Compound metabolized | –
CCN(CC)C(=O)/C(C#N)=C/c1cc(O)c(O)c([N+](=O)[O-])c1 [ENTACAPONE] | – | Compound metabolized | Compound metabolized | – | – | – | – | Compound metabolized | – | Compound metabolized | – | Compound metabolized | – | – | Compound metabolized | Compound NOT metabolized | – | – | Compound metabolized | Compound metabolized
COc1c2occc2cc2ccc(=O)oc12 [METHOXSALEN] | – | Compound metabolized | Compound metabolized | Compound metabolized | Compound metabolized | Compound metabolized | Compound metabolized | Compound metabolized | Compound metabolized | Compound metabolized | Compound metabolized | Compound metabolized | Compound metabolized | Compound metabolized | Compound metabolized | Compound metabolized | Compound metabolized | Compound metabolized | Compound NOT metabolized | Compound metabolized
COc1ccccc1N1CCN(CC(O)COc2cccc3ccccc23)CC1 (stereo not drawn) [NAFTOPIDIL] | Compound NOT metabolized | Compound NOT metabolized | Compound NOT metabolized | Compound NOT metabolized | Compound NOT metabolized | Compound NOT metabolized | Compound NOT metabolized | Compound NOT metabolized | Compound NOT metabolized | Compound NOT metabolized | Compound NOT metabolized | Compound NOT metabolized | Compound NOT metabolized | Compound NOT metabolized | Compound NOT metabolized | Compound NOT metabolized | Compound NOT metabolized | Compound NOT metabolized | Compound NOT metabolized | –
Cc1nc2n(c(=O)c1CCN1CCC(c3noc4cc(F)ccc34)CC1)CCCC2O (stereo not drawn) [PALIPERIDONE] | Compound metabolized | Compound NOT metabolized | Compound NOT metabolized | Compound metabolized | Compound metabolized | Compound metabolized | Compound metabolized | – | Compound metabolized | Compound NOT metabolized | Compound metabolized | Compound NOT metabolized | Compound metabolized | Compound metabolized | Compound metabolized | Compound metabolized | Compound metabolized | Compound metabolized | Compound NOT metabolized | Compound NOT metabolized
Cc1nc2n(c(=O)c1CCN1CCC(c3noc4cc(F)ccc34)CC1)CCCC2 [RISPERIDONE] | – | Compound metabolized | Compound metabolized | Compound metabolized | Compound metabolized | – | Compound metabolized | Compound metabolized | Compound metabolized | – | Compound metabolized | Compound metabolized | Compound metabolized | Compound metabolized | Compound metabolized | Compound metabolized | Compound metabolized | Compound metabolized | Compound metabolized | Compound metabolized

From ChEMBL document CHEMBL5724914, “Linking interpersonal differences in gut microbiota composition and drug biotransformation activity” (2024)
